Experimental data taken from patent US11235020B2, “Methods and compositions for inhibiting glyoxalase 1 (GLO1)” (priority 2013, dated 2022).

Legend:
[1] = tested on: anxiety-like behavior and locomotion in mice; test: Open field (OF) test; type: in vivo, mouse
Protocol: OF test: Mice were placed into the center of the OF, and activity was monitored for five to ten minutes. The apparatus was illuminated to approximately 40 lux. Data were collected and processed using the manufacturer's software (AccuScan Instruments).
OF test: Ten minutes post-injection, mice were placed into the center of the OF. The apparatus was illuminated to approximately 40 lux. Behavior was measured as described above.
OF test replication studies: Ten to twenty minutes post-injection, mice were tested in the OF for five to ten minutes. In some experiments, behavior was scored as described above. In other experiments, mice were tested in the OF, and behavior was automatically scored by the Noldus Ethovision System. For mice tested in the Noldus system, the apparatus was illuminated to approximately 1,000 lux.
Chronic MG administration: For five days, mice were injected twice daily with vehicle or MG (4 mg/kg). Twelve hours after the final injection, mice were tested in the OF as described above.
Pure MG: Pure MG was obtained from Dr. John Termini at the City of Hope, Duarte, Calif. It was administered at the indicated doses by i.p. injection. Mice were tested as described above.
OF test: Two hours post-injection, mice were tested in the OF test as described above. The center size was 10×10 cm. The apparatus was illuminated to approximately 40 lux.

[2] = tested on: depression-like behavior in mice; test: Chronic forced swim test (cFST), osmotic minipump; type: in vivo, mouse; settings: 14 days
Protocol: To fully assess the therapeutic potential of GLO1 inhibitors, it is necessary to utilize behavioral models sensitive to chronic administration. These models are highly informative as the therapeutic onset of antidepressant action mimics clinical onset in humans. pBBG was administered by osmotic minipumps (Alzet) for 14 days at various doses (0, 5, 10, 15, 30 and 60 mg/kg/day) to establish a dose response curve. Osmotic minipumps are ideal for chronic treatment as they release a constant volume at a very slow rate minimizing the stress of multiple injections.

[3] = molecular target: purified human GLO1 (Homo sapiens, UniProt Q04760); test: GLO1 enzymatic activity assay with purified protein; type: biochemical; settings: 100 μM BrBzGCp2, 10 ng purified GLO1
Sequence of purified human GLO1 (Q04760 whole entry): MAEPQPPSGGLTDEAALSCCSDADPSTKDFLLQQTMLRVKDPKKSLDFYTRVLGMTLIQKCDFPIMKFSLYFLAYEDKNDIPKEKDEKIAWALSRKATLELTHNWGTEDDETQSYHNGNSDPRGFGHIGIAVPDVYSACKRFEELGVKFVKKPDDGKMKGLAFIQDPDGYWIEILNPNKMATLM
Protocol: GLO1 activity was assayed by measuring the rate of formation of S-d-lactoylglutathione (Allen 1993).
Purified protein: 100 ng of purified protein was added to a hemithioacetal substrate, and enzymatic activity was measure as described above.
Enzymatic activity: Vehicle (DMSO) or 100 μM BrBzGCp2 was added to 10 ng of purified human GLO1. Enzymatic activity was measured as described above.

[4] = molecular target: T1, GLO1 (Mus musculus, UniProt Q9CPU0); test: HPLC measurement of MG concentration in whole brain after i.p. BrBzGCp2; type: in vivo; settings: BrBzGCp2 30 mg/kg i.p., two hours
T1 construct: from tissue; host or cells: whole brain of WT C57BL/6J mice, in vivo dosing
T1 sequence (Q9CPU0 2-184 limits assumed): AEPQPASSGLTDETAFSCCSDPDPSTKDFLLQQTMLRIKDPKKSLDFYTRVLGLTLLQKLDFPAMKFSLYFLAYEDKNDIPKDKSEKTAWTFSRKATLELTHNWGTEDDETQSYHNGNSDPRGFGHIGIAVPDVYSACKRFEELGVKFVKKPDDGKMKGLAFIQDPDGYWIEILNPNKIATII
Protocol: MG concentration was measured by HPLC as previously described with modifications (Dhar 2009). Tissue was homogenized in 50 mM sodium phosphate buffer (pH 6.6) and 0.8N perchloric acid. It was then incubated on ice for 10 minutes and centrifuged. The supernatant was filtered, and MG was derivatized with 10 mM o-phenylenediamine to form 2-methylquinoxaline (2-MQ). 5-methylquinoxaline (5-MQ, 15 μM) was spiked into each sample as an internal standard. 2-MQ was quantified using an HP 1100 HPLC system (Agilent) with a Nova-Pak C18 column (Waters Corporation). Column effluent was monitored at 315 nm. 2-MQ concentration was determined by comparison to 2-MQ standards of known mass. Quantification of 2-MQ was corrected for losses by comparison with 5-MQ. MG concentration was calculated as 2-MQ/tissue weight.
Treatment: BrBzGCp2 was dissolved in vehicle (8% DMSO and 18% Tween-80). Mice were treated i.p. with 10 ml/kg BrBzGCp2 or vehicle.
HPLC: 2 hours post-injection, mice were sacrificed, and brains were rapidly dissected and flash-frozen on dry ice. MG concentration was measured as described above.

[5] = tested on: depression-like behavior in mice; test: Forced swim test (FST), acute treatment; type: in vivo, mouse; settings: pBBG 50 mg/kg i.p., two hours later; C57BL/6J, FVB/nJ and BALB/cJ mice
Protocol: The forced swim test (FST) is a highly reliable screen used to predict antidepressant efficacy after acute antidepressant treatments (Petit-Demouliere, Chenu & Bourin 2005). The FST relies on the phenomenon that relative to no treatment, mice receiving treatment with antidepressants will spend more time performing escape-oriented behaviors than immobile postures. […] Mice on three genetic backgrounds (C57BL/6J, FVB/nJ and BALB/cJ) were treated with 50 mg/kg pBBG (i.p.) and assessed depression-like behavior in the FST two hours later.

[6] = tested on: depression-like behavior in mice; test: Tail suspension test (TST); type: in vivo, mouse; settings: pBBG pretreatment
Protocol: Mice were suspended by their tails using adhesive tape attached to a bar elevated approximately 46 cm above a table. The apparatus was illuminated to approximately 1,000 lux. Mice were tested individually, and time spent immobile was scored manually for six minutes. For MG studies, mice were treated with vehicle (0.9% saline) or crude MG (Sigma-Aldrich, 50 mg/kg) by i.p. injection ten minutes before the test. Behavior was scored for five minutes.

[7] = tested on: mice; test: Observation of sedation or gross deficits in treated mice; settings: mice treated with BrBzGCp2
[8] = tested on: anxiety-like behavior and locomotion in mice; test: Open field (OF) test; type: in vivo, mouse; settings: 14 days
[9] = tested on: mice; test: Signs of toxicity after chronic administration; type: in vivo; settings: chronic pBBG by osmotic minipump
Protocol: (A) Chronic (14 day) treatment by osmotic minipump with 5 or 10 mg/kg/day pBBG reduced immobility in the FST, establishing that chronic administration has antidepressant effects.

[10] = tested on: pilocarpine-induced seizures; test: Pilocarpine-induced seizures; type: in vivo, mouse
Protocol: Drug administration: All experiments with MG utilized crude MG obtained from Sigma-Aldrich. For pre-treatment, MG (50 or 200 mg/kg) or vehicle (0.9% saline) was administered by i.p. injection 10 minutes before the seizure-inducing agent. For treatment after seizure onset, MG (200 mg/kg) or vehicle (0.9% saline) was administered by i.p. injection ten minutes after seizure onset. For GLO1 inhibition, BrBzGCp2 (50 mg/kg) or vehicle (8% DMSO and 18% Tween-80) was administered by i.p. injection two hours before seizure induction.
Seizure induction: For picrotoxin-induced seizures, 5 mg/kg of picrotoxin in 0.9% saline was administered by i.p. injection. Seizures were scored for one hour after picrotoxin administration. For pilocarpine-induced seizures, mice were pre-treated with atropine (5 mg/kg in 0.9% saline) by i.p. injection in order to reduce the peripheral effects of pilocarpine. Thirty minutes after atropine administration, pilocarpine was administered by i.p. injection. B6 mice were treated with 250 mg/kg pilocarpine in 0.9% saline, and FVB mice (WT and Tg) were treated with 300 mg/kg pilocarpine in 0.9% saline. Seizures were scored for 90 minutes after pilocarpine administration.
Pilocarpine-induced seizures were scored as previously reported (Winawer 2011):
Stage 1: Immobility/Lying Low
Stage 2: Partial (limbic) seizures. Non-continuous twitching/tremor/shaking of tail/head/body/limbs, forelimb and/or tail extension, rigid posture, repetitive movements, head bobbing
Stage 3: Partial status epilepticus. Continuous tremor/clonic seizures of body and tail while retaining posture
Stage 4: Generalized seizures. Rearing/hyperexcitability/running/falling, tonic extension/clonic seizures with loss of posture
Stage 5: Generalized status epilepticus (continuous stage 4 seizures) resulting in death

[11] = BrBzGCp2 30 mg/kg i.p., B6 mice, two hours post-injection

Q: N[C@@H](CCC(=O)N[C@@H](CSCc1ccc(Br)cc1)C(=O)NCC(=O)OC1CCCC1)C(=O)OC1CCCC1 [BrBzGCp2, S-bromobenzylglutathione cyclopentyl diester] was tested. Which “center time in the OF test” value [1, 11] did it give?
A: increased center time in the OF test

Q: And the “distance traveled in the OF test” value [1, 11]?
A: without changing distance traveled

Q: What about the “anxiogenic effect of the Glo1 duplication in the OF” value ([1]; BrBzGCp2 50 mg/kg i.p., CD-1 mice with Glo1 duplication) of the same compound?
A: reversed this effect

Q: And the “center time in the OF” value ([1]; BrBzGCp2 50 mg/kg i.p., CD-1 mice, two hours post-injection)?
A: increased center time in the OF

Q: What about the “immobility in the FST compared with fluoxetine” value ([2]; pBBG 5 mg/kg/day) of the same compound?
A: reduced immobility in the FST to a similar extent as a selective serotonin reuptake inhibitor

Q: What about the “immobility in the FST after chronic treatment” value ([2]; pBBG 5 or 10 mg/kg/day) of the same compound?
A: reduce immobility in the FST

Q: And the “immobility in the FST after chronic treatment” value ([2]; pBBG 30, 60 mg/kg/day)?
A: increased immobility in the FST

Q: What about the GLO1 enzymatic activity [3] of the same compound?
A: inhibit GLO1 enzymatic activity in vitro

Q: What about the “increase of MG concentration in the brain” value [4] of the same compound?
A: approximately 20%

Q: What about the “immobility in the FST” value [5] of the same compound?
A: reduced immobility in all strains

Q: And the “immobility on the TST” value ([6]; C57BL/6J (B6) mice)?
A: decreased immobility on the TST

Q: And the “immobility on the TST” value ([6]; FVB/NJ mice)?
A: decreased immobility on the TST

Q: And the “sedation or gross deficits” value [7]?
A: did not display sedation or gross deficits

Q: And the “total distance traveled in the OFT” value ([8]; pBBG 5, 10, or 15 mg/kg/day)?
A: had no effect on total distance traveled in the OFT

Q: And the “total distance traveled in the OFT” value ([8]; pBBG 15, 30 or 60 mg/kg/day)?
A: also had no effect on total distance traveled

Q: And the “signs of toxicity following chronic administration” value [9]?
A: none were observed

Q: What about the seizure stage ([10]; BrBzGCp2 50 mg/kg i.p. two hours before pilocarpine) of the same compound?
A: did not affect seizure stage

Q: What about the “seizure duration (time in stage 3)” value ([10]; BrBzGCp2 50 mg/kg i.p. two hours before pilocarpine 250 mg/kg) of the same compound?
A: reduced seizure durations

Q: And the seizure latency ([10]; BrBzGCp2 50 mg/kg i.p. two hours before pilocarpine, data not shown)?
A: did not significantly affect seizure latency
